Our source for the IC50 values is patent EP4483954A1 (Masarykova Univerzita, priority 2023, dated 2025).

Common to all, as to format: biochemical
In one assay the target is T1, CDKL4(h) (Homo sapiens, UniProt Q5MAI5).
T1 construct: purchased Eurofins (KinaseProfiler)
In words: radiometric kinase assay (KinaseProfiler, Eurofins), CDKL4. To be noted: in vitro radiometric kinase assay, tested at 1 nM to 10 000 nM, no pre-incubation; read-out: inhibitory activities (IC50 values) CDKL4.

The next assay addresses T2, CLK2 (h) (Homo sapiens, UniProt P49760).
T2 construct: purchased Eurofins (KinaseProfiler)
The assay is described as follows: radiometric kinase assay (KinaseProfiler, Eurofins), CLK2. Particulars: in vitro radiometric kinase assay, tested at 1 nM to 10 000 nM, no pre-incubation; read-out: inhibitory activities (IC50 values) CLK2. In short, it runs like this:
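Radiometric filter-binding assay: human CLK2 in 8 mM MOPS pH 7.0 with 20 µM peptide substrate, 10 mM Mg acetate and γ-33P-ATP, no compound preincubation; 40 min at room temperature. Activity relative to DMSO over 1–10 000 nM compound; IC50 by curve fit.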

A further assay addresses T3, Haspin (h) (Homo sapiens, UniProt Q8TF76).
T3 construct: purchased Eurofins (KinaseProfiler)
T3 sequence (Q8TF76 1-798): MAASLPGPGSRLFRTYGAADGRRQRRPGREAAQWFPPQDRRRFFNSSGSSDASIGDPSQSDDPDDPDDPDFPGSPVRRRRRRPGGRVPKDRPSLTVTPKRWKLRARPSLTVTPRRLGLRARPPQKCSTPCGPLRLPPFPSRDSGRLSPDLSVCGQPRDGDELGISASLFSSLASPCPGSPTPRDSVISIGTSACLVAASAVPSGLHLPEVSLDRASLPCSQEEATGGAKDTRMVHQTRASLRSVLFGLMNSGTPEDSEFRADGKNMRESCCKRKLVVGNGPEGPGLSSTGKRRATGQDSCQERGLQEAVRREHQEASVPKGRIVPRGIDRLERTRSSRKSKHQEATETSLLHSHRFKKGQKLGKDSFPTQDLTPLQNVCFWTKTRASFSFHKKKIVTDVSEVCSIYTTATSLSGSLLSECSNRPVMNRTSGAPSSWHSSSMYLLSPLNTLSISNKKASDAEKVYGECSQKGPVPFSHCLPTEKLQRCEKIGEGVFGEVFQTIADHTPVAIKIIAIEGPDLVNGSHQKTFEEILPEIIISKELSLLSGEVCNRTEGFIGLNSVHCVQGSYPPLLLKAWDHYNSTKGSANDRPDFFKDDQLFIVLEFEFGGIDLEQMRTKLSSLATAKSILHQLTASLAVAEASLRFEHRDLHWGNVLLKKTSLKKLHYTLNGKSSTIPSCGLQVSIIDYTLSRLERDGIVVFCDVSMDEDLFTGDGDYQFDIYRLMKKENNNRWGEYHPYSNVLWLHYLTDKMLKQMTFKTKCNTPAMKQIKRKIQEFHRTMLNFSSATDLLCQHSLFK
In words: radiometric kinase assay (KinaseProfiler, Eurofins), Haspin. To be noted: in vitro radiometric kinase assay, tested at 1 nM to 10 000 nM, no pre-incubation; read-out: inhibitory activities (IC50 values) Haspin. The essentials:
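Human Haspin in 8 mM MOPS pH 7.0 with 500 µM RARTLSFAEPG, 10 mM Mg acetate and γ-33P-ATP; compound added without preincubation. Reaction ran 40 min at room temperature, then filter-bound 33P was counted. Nine concentrations from 1 to 10 000 nM gave % remaining activity versus DMSO, and IC50 came from curve fit.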

The target in the next assay is T4, PIM1 (h) (Homo sapiens, UniProt P11309).
T4 construct: purchased Eurofins (KinaseProfiler)
In words: radiometric kinase assay (KinaseProfiler, Eurofins), PIM1. To be noted: in vitro radiometric kinase assay, tested at 1 nM to 10 000 nM, no pre-incubation; read-out: inhibitory activities (IC50 values) PIM1. In short, it runs like this: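 Human PIM1 in 8 mM MOPS pH 7.0, 0.2 mM EDTA, 10 mM magnesium acetate, 100 µM KKRNRTLTV and γ-33P-ATP; started with Mg/ATP without compound preincubation, 40 min at room temperature. Filter-bound 33P counted; remaining activity versus DMSO at 1–10 000 nM gave IC50.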

T2 sequence (P49760 whole entry): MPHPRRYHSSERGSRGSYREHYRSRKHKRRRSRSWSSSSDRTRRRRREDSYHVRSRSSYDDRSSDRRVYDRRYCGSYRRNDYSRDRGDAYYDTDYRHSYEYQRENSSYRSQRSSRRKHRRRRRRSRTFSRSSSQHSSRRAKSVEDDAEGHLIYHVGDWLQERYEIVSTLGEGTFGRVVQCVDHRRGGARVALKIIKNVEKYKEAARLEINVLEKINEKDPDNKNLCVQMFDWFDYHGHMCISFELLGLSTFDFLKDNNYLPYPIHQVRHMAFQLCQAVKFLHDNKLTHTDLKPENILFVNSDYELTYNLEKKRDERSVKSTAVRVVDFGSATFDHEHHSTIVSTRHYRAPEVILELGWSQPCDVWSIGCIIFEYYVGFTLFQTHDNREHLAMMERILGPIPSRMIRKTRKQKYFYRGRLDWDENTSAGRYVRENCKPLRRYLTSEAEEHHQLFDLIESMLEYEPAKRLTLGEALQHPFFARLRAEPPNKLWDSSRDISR
T1 sequence (Q5MAI5 whole entry): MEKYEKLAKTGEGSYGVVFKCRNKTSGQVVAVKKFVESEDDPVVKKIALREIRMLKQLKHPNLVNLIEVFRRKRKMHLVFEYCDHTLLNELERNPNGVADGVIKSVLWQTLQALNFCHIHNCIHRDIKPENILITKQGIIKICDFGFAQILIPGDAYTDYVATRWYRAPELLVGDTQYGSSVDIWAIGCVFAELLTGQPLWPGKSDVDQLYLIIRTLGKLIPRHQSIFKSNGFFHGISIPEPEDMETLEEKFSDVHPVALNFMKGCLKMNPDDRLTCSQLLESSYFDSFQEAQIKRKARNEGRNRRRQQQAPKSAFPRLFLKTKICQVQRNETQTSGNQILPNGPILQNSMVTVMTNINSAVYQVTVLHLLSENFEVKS
T4 sequence (P11309 whole entry): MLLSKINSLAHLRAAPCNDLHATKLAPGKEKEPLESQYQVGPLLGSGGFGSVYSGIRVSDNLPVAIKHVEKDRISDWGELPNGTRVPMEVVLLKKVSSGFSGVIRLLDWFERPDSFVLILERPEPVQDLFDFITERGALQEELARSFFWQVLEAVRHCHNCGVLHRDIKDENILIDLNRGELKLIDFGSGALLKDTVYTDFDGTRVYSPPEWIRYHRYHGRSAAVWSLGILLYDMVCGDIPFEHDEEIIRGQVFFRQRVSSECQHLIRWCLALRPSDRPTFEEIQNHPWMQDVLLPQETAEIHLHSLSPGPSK

Consider `Cc1cc(-c2cnn(C)c2)nc2c(-c3ccncc3)csc12` [Preparative Example 157, 7-methyl-5-(1-methyl-1H-pyrazol-4-yl)-3-(pyridin-4-yl)thieno[3,2-b]pyridine], for which the IC50 (in general, the concentration needed to halve the response being measured) is 0.5 to 3 µM at CDKL4(h), 3 to 10 µM at CLK2 (h), 0.5 to 3 µM at Haspin (h) and 3 to 10 µM at PIM1 (h).
Consider `Cn1cc(-c2cc(Cl)c3scc(-c4ccncc4)c3n2)cn1` [Preparative Example 162, 7-chloro-5-(1-methyl-1H-pyrazol-4-yl)-3-(pyridin-4-yl)thieno[3,2-b]pyridine], for which the IC50 fell in the range of 0.1 to 0.499 µM on CDKL4(h), 0.5 to 3 µM at CLK2 (h), 0.5 to 3 µM on Haspin (h) and 0.5 to 3 µM at PIM1 (h).
As for `Cn1ccc(-c2cc(Cl)c3scc(-c4ccncc4)c3n2)n1` [Preparative Example 163, 7-chloro-5-(1-methyl-1H-pyrazol-3-yl)-3-(pyridin-4-yl)thieno[3,2-b]pyridine], the IC50 on CDKL4(h) lay in the range of 0.5 to 3 µM; at CLK2 (h), 3 to 10 µM; at Haspin (h) it was 0.1 to 0.499 µM; on PIM1 (h), 3 to 10 µM.
As for `COc1cc(-c2ccn(C)n2)nc2c(-c3ccncc3)csc12` [Preparative Example 165, 7-methoxy-5-(1-methyl-1H-pyrazol-3-yl)-3-(pyridin-4-yl)thieno[3,2-b]pyridine], the IC50 on CDKL4(h) lay within 0.5 to 3 µM; at CLK2 (h), 3 to 10 µM; at Haspin (h) it was 0.1 to 0.499 µM; on PIM1 (h), 3 to 10 µM.
